Reference: the NIST ThermoML archive (doi:10.1021/je900437b)

Assay: xn = mol fraction of the nth substance listed
Settings: 101 kPa, Liquid; for speed of sound: Sing-around technique in a fixed-path interferometer; for mass density: Vibrating tube method

OCCN(CCO)CCO [triethanolamine] + NCCO
Settings | mass density [kg/m3] | speed of sound [m/s]
298.15 K, x2 = 0 | 1120.82 | 1610.5
298.15 K, x2 = 0.1159 | 1116.38 | 1625.2
298.15 K, x2 = 0.2165 | 1111.37 | 1637.8
298.15 K, x2 = 0.3017 | 1106.52 | 1648.4
298.15 K, x2 = 0.3788 | 1101.52 | 1658.1
298.15 K, x2 = 0.4492 | 1096.35 | 1666.8
298.15 K, x2 = 0.5121 | 1091.14 | 1674.3
298.15 K, x2 = 0.6192 | 1080.56 | 1686.4
298.15 K, x2 = 0.7099 | 1069.5 | 1695.9
298.15 K, x2 = 0.7849 | 1058.49 | 1702.7
298.15 K, x2 = 0.8509 | 1046.99 | 1708
298.15 K, x2 = 0.907 | 1035.53 | 1712.1
298.15 K, x2 = 0.9561 | 1023.91 | 1715.6
303.15 K, x2 = 0 | 1118.06 | 1600.5
303.15 K, x2 = 0.1159 | 1113.44 | 1615.2
303.15 K, x2 = 0.2165 | 1108.35 | 1628
303.15 K, x2 = 0.3017 | 1103.4 | 1638.7
303.15 K, x2 = 0.3788 | 1098.32 | 1648.3
303.15 K, x2 = 0.4492 | 1093.05 | 1656.7
303.15 K, x2 = 0.5121 | 1087.76 | 1663.9
303.15 K, x2 = 0.6192 | 1077.07 | 1675.3
303.15 K, x2 = 0.7099 | 1065.88 | 1683.4
303.15 K, x2 = 0.7849 | 1054.74 | 1689.1
303.15 K, x2 = 0.8509 | 1043.15 | 1693.5
303.15 K, x2 = 0.907 | 1031.61 | 1697.1
303.15 K, x2 = 0.9561 | 1019.93 | 1700.3
308.15 K, x2 = 0 | 1115.26 | 1595.5
308.15 K, x2 = 0.1159 | 1110.42 | 1610
308.15 K, x2 = 0.2165 | 1105.26 | 1622.1
308.15 K, x2 = 0.3017 | 1100.25 | 1632
308.15 K, x2 = 0.3788 | 1095.08 | 1640.8
308.15 K, x2 = 0.4492 | 1089.75 | 1648.6
308.15 K, x2 = 0.5121 | 1084.39 | 1655.1
308.15 K, x2 = 0.6192 | 1073.56 | 1665
308.15 K, x2 = 0.7099 | 1062.26 | 1671.8
308.15 K, x2 = 0.7849 | 1051.01 | 1676.7
308.15 K, x2 = 0.8509 | 1039.31 | 1680.6
308.15 K, x2 = 0.907 | 1027.72 | 1683.5
308.15 K, x2 = 0.9561 | 1015.99 | 1685.9
313.15 K, x2 = 0 | 1112.4 | 1587
313.15 K, x2 = 0.1159 | 1107.47 | 1601.8
313.15 K, x2 = 0.2165 | 1102.16 | 1613.9
313.15 K, x2 = 0.3017 | 1097.05 | 1623.6
313.15 K, x2 = 0.3788 | 1091.8 | 1631.9
313.15 K, x2 = 0.4492 | 1086.4 | 1639.2
313.15 K, x2 = 0.5121 | 1080.99 | 1645.2
313.15 K, x2 = 0.6192 | 1070.01 | 1654.6
313.15 K, x2 = 0.7099 | 1058.62 | 1661.1
313.15 K, x2 = 0.7849 | 1047.27 | 1665.1
313.15 K, x2 = 0.8509 | 1035.49 | 1667.6
313.15 K, x2 = 0.907 | 1023.83 | 1669
313.15 K, x2 = 0.9561 | 1012.03 | 1670
318.15 K, x2 = 0 | 1109.6 | 1578.8
318.15 K, x2 = 0.1159 | 1104.53 | 1593.8
318.15 K, x2 = 0.2165 | 1099.15 | 1605.9
318.15 K, x2 = 0.3017 | 1093.95 | 1614.8
318.15 K, x2 = 0.3788 | 1088.58 | 1622.6
318.15 K, x2 = 0.4492 | 1083.06 | 1629.4
318.15 K, x2 = 0.5121 | 1077.57 | 1635.1
318.15 K, x2 = 0.6192 | 1066.47 | 1643.9
318.15 K, x2 = 0.7099 | 1054.94 | 1649.5
318.15 K, x2 = 0.7849 | 1043.54 | 1652.8
318.15 K, x2 = 0.8509 | 1031.7 | 1654.6
318.15 K, x2 = 0.907 | 1019.92 | 1655.3
318.15 K, x2 = 0.9561 | 1008.07 | 1655.3
323.15 K, x2 = 0 | 1106.78 | 1570.6
323.15 K, x2 = 0.1159 | 1101.56 | 1585.9
323.15 K, x2 = 0.2165 | 1096.03 | 1597.2
323.15 K, x2 = 0.3017 | 1090.73 | 1605.9
323.15 K, x2 = 0.3788 | 1085.31 | 1613.5
323.15 K, x2 = 0.4492 | 1079.76 | 1620.1
323.15 K, x2 = 0.5121 | 1074.18 | 1625.6
323.15 K, x2 = 0.6192 | 1062.92 | 1633.2
323.15 K, x2 = 0.7099 | 1051.26 | 1637.5
323.15 K, x2 = 0.7849 | 1039.74 | 1639.8
323.15 K, x2 = 0.8509 | 1027.82 | 1641.3
323.15 K, x2 = 0.907 | 1016 | 1641.8
323.15 K, x2 = 0.9561 | 1004.09 | 1641
